# Assay results: US12012622B1, “Paenibacillus pabuli-derived enzyme capable of producing galacto-oligosaccharide, and method for producing galacto-oligosaccharide” (GODO SHUSEI CO., LTD., priority 2018, dated 2024)
# Marks after values point to notes of the source that are not given here.
# Experiments:
# [1] = system: Paenibacillus pabuli lactase (enzyme of Example 1, SEQ ID NO: 1); assay: Analysis of reaction rate parameter with ONPG as substrate (Validation 1); format: biochemical; settings: substrate ONPG 0.075 to 7.5 mM; 40° C., 10 minutes; 100 mM sodium phosphate (pH 6.5)
# From the text: After the production of each enzyme, the transformant was ultrasonically disrupted to give a cell disruption liquid. […] The prepared cell disruption liquids were each ultra-filtered as necessary to concentrate the enzyme. The concentrated disruption liquid of the enzyme consisting of an amino acid sequence set forth in SEQ ID NO: 1 was defined as Example 1, and the concentrated disruption liquid of the enzyme consisting of an amino acid sequence set forth in SEQ ID NO: 2 was defined as Example 2.
# The reaction rate parameter when using the ONPG of the enzyme of Example 1 as the substrate was determined by the following method. The specific activity (μmol/mg protein/min) upon reaction at a substrate concentration of 0.075 to 7.5 mM at 40° C. for 10 minutes was calculated, and the specific activity was plotted to each substrate concentration. At this time, 100 mM sodium phosphate (pH 6.5) was used as the buffer. From the substrate saturation curve measured by the above method, following the Michaelis-Menten equation, Km (Michaelis-Menten constant), which indicates the affinity between the enzyme and the substrate, and V. (maximum velocity), which indicates how many micromoles of substrate is catalyzed in 1 minute per mg of the enzyme, were calculated.
# [2] = system: Bacillus circulans lactase β-galII (main enzyme of BIOLACTA); settings: substrate ONPG; cited from Non-Patent Literature 1; cited from earlier work
structure (smiles),measurement,setting,value
"O=[N+]([O-])c1ccccc1O[C@@H]1O[C@H](CO)[C@H](O)[C@H](O)[C@H]1O [ONPG, o-nitrophenyl-β-galactopyranoside]",Km,[1],0.36 mM
same,Vmax,[1],55.0 units/mg protein
same,Km,[2],10 mM
same,Vmax,[2],56.0* units/mg protein
